For assay [1], the system named is STZ (130 mg/kg) diabetic pigs. As to the kind of experiment: Two-week oral metformin treatment of STZ diabetic pigs: postprandial plasma glucose and insulin, body weight, urinary glucose excretion. The assay is classed as in vivo, pig. On the procedure: (§1) Protocol 5: insulin-mediated whole body glucose disposal, after a two-week placebo or metformin (twice 1.5 g per day) oral treatment period under conditions of iso-energetic feeding, was studied with the hyperinsulinemic (2 mU/kg/minute) euglycemic clamp technique in 14 STZ (130 mg/kg) diabetic pigs.
Fasting blood samples were taken before the start of hyperinsulinemic clamp experiments and postprandial blood samples were taken two to three hours after a morning meal in the week following a clamp study.
Plasma insulin concentration was measured using a Delfia assay (test kit No. B080-1101 by Perkin Elmer Life Sciences, trust by Wallac Oy, Turku, Finland). This specific pig insulin assay was validated using pig insulin standards. Plasma and urine glucose concentrations were analyzed enzymically on an autoanalyzer of Radiometer (ABL and AML, Copenhagen, Denmark). Urine was collected in buckets containing 0.5 grams Halamid-d (sodium-p-toluenesulfonchloramide, Akzo Nobel Chemicals, Amersfoort, NL) to prevent microbial breakdown of glucose. Urine volume was registered over a given interval in order to calculate the rate of urinary glucose excretion. Urine samples (0.5 mL) were stored at −20° C. for later glucose analyses. Ketones (acetoacetic acid) were determined in fresh urine by a reagent strip test (Ketostix, Bayer Diagnostics, Mijdrecht, NL).

The subject of assay [2] is STZ (130 mg/kg) diabetic pigs. As to the kind of experiment: Hyperinsulinemic euglycemic clamp in STZ diabetic pigs after two-week metformin treatment. The assay is classed as in vivo, pig. As for the experimental part:
as §1
After overnight fasting, at t=0 minute, insulin was administered as a prime—(17 or 34 mU/kg) continuous (1 or 2 mU/kg/minute) infusion for three hours in normal pigs. Simultaneously, a variable infusion of a 33% D-glucose solution was started and adjusted every ten minutes to maintain the plasma glucose concentration at euglycemic levels and a 6,6-^2H-glucose solution was given as a prime—(216 mg) continuous (3.6 mg/minute). Steady-state conditions were achieved within 90 minutes after initiation of the hyperinsulinemic clamp and steady-state calculations were carried out during the last hour of the clamp (t=120, 135, 150, 165 and 180 minutes). In hyperglycemic diabetic pigs, insulin was given as a prime—(34 or 136 mU/kg) continuous (2 or 8 mU/kg/minute) infusion for five hours. After reaching euglycemic levels, a variable infusion of a 33% D-glucose solution was started and adjusted every ten minutes to maintain the plasma glucose concentration at euglycemia. At t=2 hours, 6,6-^2H-glucose was administered as a prime— (216 mg) continuous (3.6 mg/minute) infusion for the last three hours of the clamp in diabetic pigs. Steady-state conditions were achieved during the last hour of the clamp and steady-state calculations were carried out at (t=240, 255, 270, 285 and 300 minutes).

Another assay has as its system rodent. The settings on record: rodent studies, relatively high doses (100 to 500 mg/kg); cited from earlier work.
Setting [3] is: metformin twice 1.5 g per day oral, two weeks.
The mark [4] stands for this setting: after two weeks metformin, insulin 2 mU/kg/minute.

Take `CN(C)C(=N)N=C(N)N` [Metformin, metformin]: the “Reduction in postprandial plasma glucose compared to placebo-treated pigs” value in assay [1] (after 14 days of metformin) amounted to 30%. In assay [1] (metformin group, baseline), the “Postprandial plasma glucose, before treatment” value stood at 31.0 ± 5.8 mmol/L and the “Postprandial plasma insulin, before treatment” value worked out at 1 ± 0 mU/L. In assay [1] (setting [3]), the “Postprandial plasma glucose, at end of treatment” value worked out at 24.9 ± 2.2 mmol/L and the “Postprandial plasma insulin, at end of treatment” value was found to be 3 ± 1 mU/L. For the same molecule, in assay [2] (after two weeks metformin), the Fasting plasma glucose was 14.7 ± 1.5 mmol/L; the Fasting plasma insulin is given as 11 ± 6 mU/L; the “Fasting plasma insulin, range” value is listed as “range (3-37) mU/L”; the “Increase in insulin-stimulated whole body glucose disposal compared to placebo-treated diabetic pigs” value is listed as 60%. Besides, the “Reduction in fasting plasma glucose compared to placebo-treated diabetic pigs” value in assay [2] (after two weeks metformin) was 24%. In assay [2] (setting [4]), the “Steady-state clamp glucose infusion rate (whole body glucose disposal)” value was 9.4 ± 2.2 mg/kg/min, the “Steady-state clamp plasma glucose” value is 5.3 ± 0.3 mmol/L, the “Steady-state clamp plasma insulin” value was determined as 42 ± 7 mU/L and the “Time to reach euglycemia in diabetic pigs” value turned out to be 105 ± 28 min. For the same molecule, the “Steady-state clamp glucose infusion rate (whole body glucose disposal)” value in assay [2] (after two weeks metformin, insulin 2 mU/kg/minute, listed as metformin) was found to be 9.4 mg/kg/min. Besides, the “Whole body glucose disposal, metformin group compared to placebo group” value in assay [2] (similar insulin stimulation) turned out to be 1.6 fold. Also, the “Effect on glucose homeostasis” value in the assay with rodent is recorded as “immediate (within days) effect”.
